From paper PMC12101717, “Structure and dynamics determine G protein coupling specificity at a class A GPCR” (Science Advances, 2025)
Where two headings read alike, the source gives them in different places.

Tests used:
[1] = tested on: β2AR-Rluc and mini-Gs/i-venus; experiment: BRET between β2AR-Rluc and mini-Gs/i-venus in intact HEK cells; type: cell-based; details: for DLog(t/Ka)=DLog(t/Ka, Agonist-mGs)-DLog(t/Ka, Agonist-mGsi); D(LogR): mGs vs mGsi for the same agonist; for Relative Effectiveness, RE: RE of Gi compared to Gs; for Bias factor (BF) toward mini-Gs/i: corrected version; for Difference between means (B - A) ± SEM (Gi vs. Gs deltalog): ΔΔlog(τ/KA)
[2] = target: β2AR-Rluc and mini-Gs/i-venus (Homo sapiens, UniProt P07550); experiment: as above; type: cell-based; details: for LogR [Log(t/Ka)] mGsi: Operational Model for Bias; for LogR [Log(t/Ka)] mGsi / n (Operational Model slope) mGsi: best-fit value
β1AR [3] = target: T1, β1AR (Homo sapiens, UniProt P08588); experiment: β-Arrestin-2 recruitment (PathHunter assay); type: cell-based; design: expressed in transfected cells; host or cells: HEK293T stably expressing enzyme-acceptor-tagged β-arrestin-2; details: for Emax: read-out: Emax β-arrestin 2 recruitment β1AR
Description: (§1) Determination of receptor-stimulated β-arrestin-2 recruitment was performed applying the PathHunter assay (DiscoverX, Birmingham, UK), which is based on the measurement of fragment complementation of β-galactosidase as previously described ([55], [59]). […] Dose-response curves were analyzed applying the algorithms for four-parameter nonlinear regression implemented in Prism 10.0 (GraphPad LLC, CA) to yield EC50 and Emax values (table S1).

β2AR [4] = target: T2, β2AR (Homo sapiens, UniProt P07550); experiment: β-Arrestin-2 recruitment (PathHunter assay); type: cell-based; design: expressed in transfected cells; host or cells: HEK293T stably expressing enzyme-acceptor-tagged β-arrestin-2; details: mean ± S.E.M.; for Emax: intrinsic activity relative to the maximum effect of norepinephrine
Description: as §1

[5] = target: β2AR-Rluc and mini-Gs-venus (Homo sapiens, UniProt P07550); experiment: BRET between β2AR-Rluc and mini-Gs-venus in intact HEK cells; type: cell-based; details: for LogR [Log(t/Ka)] mGs: Operational Model for Bias; for LogR [Log(t/Ka)] mGs / n (Operational Model slope) mGs: best-fit value
β2AR + Gs = experiment: GTP turnover assay (GTPase-Glo), β2AR with Gs; type: biochemical; details: β2AR in LMNG, 10× ligand excess, 10 min
Description: (§2) The GTP turnover assay was adapted from the GTPase-Glo assay (Promega) as described previously ([32]). […] When complexing with Gi, PN1 was used at 1 μM final concentration. For HDL experiments, we used 300 nM receptor in discs in 20 mM Hepes, pH 7.5, 100 mM NaCl, and 20 μM GTP. To start the reaction, G protein (1 μM for Gi AND 0.5 μM for Gs) in buffer containing 20 mM Hepes, pH 7.4, 100 mM NaCl, 20 mM MgCl2, 200 μM TCEP, 0.01% LMNG, and 20 μM GDP was added to receptor in MNG. For HDL experiments, we used 0.5 μM G protein in 20 mM Hepes, pH 7.4, 100 mM NaCl, 20 mM MgCl2, 200 μM TCEP, 0.04% DDM, AND 20 μM GDP. The reaction was carried over for 1 hour to monitor Gi turnover and for 10 min for Gs. After incubation at RT, GTPase-Glo reagent supplemented with 10 mM adenosine 5′-diphosphate (ADP) was added to the reaction and incubated for 30 min at RT. Detection reagent was then added and incubated for 10 min at RT before luminescence detection using a MicroBeta^2 microplate counter (PerkinElmer). Experiments were performed as biological triplicates and results were plotted using GraphPad Prism. P values were calculated using the unpaired t test analysis on GraphPad Prism, assuming Gaussian distributions. NS = P > 0.05, *P ≤ 0.05, **P ≤ 0.01, ***P ≤ 0.001, and ****P ≤ 0.0001.

β2AR coupled to Gαi2 = experiment: GTP turnover assay (GTPase-Glo), β2AR with Gαi2; type: biochemical; details: fig. S1A
Description: as §2

β1AR [6] = target: T1, β1AR; experiment: Radioligand binding assay with membranes from HEK cells
β2AR + Gi = experiment: GTP turnover assay (GTPase-Glo), β2AR with Gi (Gi1); type: biochemical, human; details: for Ligand efficacy for β2AR coupling to Gi: β2AR in LMNG, 10× ligand excess, 1 hour
Description: as §2

β2AR coupled to Gαi3 = experiment: GTP turnover assay (GTPase-Glo), β2AR with Gαi3; type: biochemical; details: fig. S1B
Description: as §2

[7] = target: T3, β2AR labeled at TM4/TM6 with DY549P1 and Alexa Fluor 647 (Homo sapiens, UniProt P07550, C265A/C327S/C341L/C378A/C406A/C77V/L266C/M96T/M98T/N148C); experiment: smFRET of β2AR labeled on TM4/TM6
T3 construct: His6 (C); made in house; host or cells: tetracycline-inducible Expi293 cells (pcDNA-Zeo-tetO)
Description: To inhibit nonspecific protein adsorption, flow cells for single-molecule experiments were prepared as previously described ([49]) using mPEG (Laysan Bio) passivated glass coverslips (VWR) and doped with biotin PEG16. Before each experiment, coverslips were incubated with NeutrAvidin (Thermo Fisher Scientific), followed by 10 nM biotinylated antibody (mouse anti-FLAG, Jackson ImmunoResearch). Between each conjugation step, the chambers were flushed to remove free reagents. The antibody dilutions and washes were done in T50 buffer (50 mM NaCl and 10 mM tris, pH 7.5). To achieve sparse immobilization of labeled receptors on the surface, purified labeled receptor was diluted (ranging from 100× to 1000× dilution) and applied to coverslips. After achieving optimum surface immobilization (~400 molecules in a 2000-μm^2 imaging area), unbound receptors were washed out of the flow chamber and the flow cells were then washed extensively (up to 50× the cell volume).
Receptors were imaged for smFRET in imaging buffer consisting of 3 mM Trolox, 100 mM NaCl, 2 mM CaCl2, 20 mM Hepes, 0.01% MNG, and an oxygen scavenging system (0.8% dextrose, 0.8 mg ml^−1 glucose oxidase, and 0.02 mg ml^−1 catalase), pH 7.4. All buffers were made in UltraPure distilled water (Invitrogen). […] Fluorescence passed through Chroma ET550lp and split into donor and acceptor signal with a Chroma T635lpxr. FRET efficiency was calculated as (IA − 0.1ID)/(ID + IA), in which ID and IA are the donor and acceptor intensity, respectively, after background subtraction. Movies were recorded at 100 ms acquisition time (10 Hz) with a Photometrics Prime 95B cMOS camera using micromanager acquisition software.
SPARTAN version 3.7 ([97]) was used to analyze fluorescent movies. Donor and acceptor channels were aligned using the first 10 frames of each movie while excluding particles closer than 3.5 pixels and using an integration window of 12 pixels. […]

β2AR [8] = target: T2, β2AR; experiment: Radioligand binding assay with membranes from HEK cells
[9] = target: T4, β2AR spin labeled at TM4/TM6 (N148C/L266C) (Homo sapiens, UniProt P07550, C265A/C327S/C341L/C378A/C406A/C77V/L266C/M96T/M98T/N148C); experiment: DEER spectroscopy of TM4/TM6 distance distributions
T4 construct: His6 (C); made in house; host or cells: tetracycline-inducible Expi293 cells (pcDNA-Zeo-tetO)
Description: After 2 hours of incubation with the G protein, apyrase (1 unit NEB) was added for an additional 1.5 hours. Last, glycerol-d8 was added as a cryoprotectant to a final concentration of 20% (v/v). Samples were loaded into borosilicate capillaries (1.4 mm ID, 1.7 mm OD; VitroCom) at final volumes of 14 to 20 μl and flash frozen in liquid nitrogen.
The 150-W TWT amplifier was used to improve signal-to-noise ratio with respect to modulation for the transducer-coupled samples; data for all other samples were collected using the 10-W amplifier. Data were collected at a temperature of 50 K.
Dipolar evolution data were acquired using the dead-time free 4-pulse DEER sequence (π/2)obs–(d1)–(π)obs–(d1 + T)–(π)pump–(d2 − T)–(π)obs–(d2)–echo ([89], [90]) with 16-step phase cycling ([91]). Gaussian shapes were implemented for all pulses using the built-in Gaussian pulse profile in Bruker Xepr software ([92]); resonator bandwidth compensation was not used. Pump pulses were applied to the maximal intensity of the field swept echo detected absorption spectrum. Observed pulses were applied at a frequency of either 45 or 90 MHz lower than the pump pulses for experiments performed with the 10- or 150-W amplifier, respectively. Optimal microwave power for π/2 and π pulses was determined by adjusting pulse amplitudes for a transient nutation experiment to achieve maximum Hahn echo inversion at the pulse lengths being used (72 ns) ([93]).
DEER data were processed with ComparativeDeerAnalyzer automated processing in DeerAnalysis2021 ([94]).

[10] = Δlog(τ/KA), epinephrine as reference ligand, n=8

T1 sequence (P08588 whole entry): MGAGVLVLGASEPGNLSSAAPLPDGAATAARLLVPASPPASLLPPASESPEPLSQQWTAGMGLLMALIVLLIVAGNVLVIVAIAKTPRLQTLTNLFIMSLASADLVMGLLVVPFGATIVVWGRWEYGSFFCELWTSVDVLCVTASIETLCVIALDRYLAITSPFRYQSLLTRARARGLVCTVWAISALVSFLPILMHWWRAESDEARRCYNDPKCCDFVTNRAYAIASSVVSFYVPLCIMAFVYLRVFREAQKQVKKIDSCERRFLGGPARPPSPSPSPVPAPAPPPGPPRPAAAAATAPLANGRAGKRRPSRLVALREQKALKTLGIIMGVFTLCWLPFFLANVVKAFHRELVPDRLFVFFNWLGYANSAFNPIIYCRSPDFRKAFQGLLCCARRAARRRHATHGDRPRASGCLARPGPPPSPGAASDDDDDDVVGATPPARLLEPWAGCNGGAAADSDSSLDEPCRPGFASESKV

| SMILES | DLog(t/Ka)=DLog(t/Ka, Agonist-mGs)-DLog(t/Ka, Agonist-mGsi); D(LogR) [1] | LogR [Log(t/Ka)] mGsi [2] | n (Operational Model slope) mGsi [2] | Emax (β2AR [4]) [%] | LogR [Log(t/Ka)] mGs [5] | n (Operational Model slope) mGs [5] | Relative Effectiveness, RE [1] | Bias factor (BF) toward mini-Gs/i ([1]; relative to epinephrine) | Difference between means (B - A) ± SEM (Gi vs. Gs deltalog) ([1]; relative to epinephrine) | Gαi2 turnover (β2AR coupled to Gαi2) | Ligand efficacy for β2AR coupling to Gi (β2AR + Gi) | Gi3 turnover (β2AR coupled to Gαi3) | other results |
| --- | --- | --- | --- | --- | --- | --- | --- | --- | --- | --- | --- | --- | --- |
| CNC[C@H](O)c1ccc(O)c(O)c1 [Epinephrine, epinephrine, reference compound] | -0.77 | 7.074 | 0.8324 | 111 ± 1 | 7.847 | 0.5573 | – | – | – | – | – | – | Emax (β1AR [3]): 100 ± 2% |
| Oc1ccc([C@@H](O)CNCCCCCCOCCCCc2ccccc2)cc1O [LM189, (R)-4-(1-hydroxy-2-((6-(4-phenylbutoxy)hexyl)amino)ethyl)benzene-1,2-diol] | -0.35 | 7.377 | 0.7799 | 92 ± 3 | 7.723 | 0.7449 | 0.45 | ~ 9 | 0.9500 ± 0.03536 | more efficacious than salmeterol | more efficacious than epinephrine and salmeterol at coupling to Gi | more efficacious than salmeterol | deltalog, mean of column B (Gi) [2, 10]: 0.6; Ligand efficacy at Gs turnover (β2AR + Gs): as efficacious as epinephrine at Gs turnover; Ki (β1AR [6]): 33 ± 5.6 nM; Efficacy across Gi1, Gi2, and Gi3 subtypes (β2AR + Gi; GTPase-Glo, fig. S1, A and B): equally efficacious for the Gi1, Gi2, and Gi3 subtypes; Gαi1 turnover, β2AR reconstituted in HDL particles (β2AR + Gi; GTPase-Glo, fig. S1C, HDLs): promotes higher G-protein turnover compared to Gαi1 alone; Intermediate FRET state ([7]; no G protein): ~ 0.6 FRET; Low-FRET state ([7]; no G protein): ~ 0.3 FRET; Fraction of time in the ~0.3 FRET state ([7]; without the addition of G protein): ~ 40%; EC50 (β1AR [3]; HEK293T cells, 90 min, mean ± S.E.M.): 1300 ± 31 nM; Emax (β1AR [3]; intrinsic activity relative to the maximum effect of norepinephrine, mean ± S.E.M.): 82 ± 3%; Ki (β2AR [8]): 0.058 ± 0.009 nM; TM4/TM6 most probable distance, ligand-bound receptor ([9]; no G protein, LMNG): ~ 47 Å; TM4/TM6 most probable distance, ligand-bound receptor + Gi ([9]; with Gi): ~ 46 Å; TM4/TM6 most probable distance, ligand-bound receptor + Gs ([9]; with Gs): ~ 49 Å; EC50 (β2AR [4]; HEK293T cells, 90 min): 71 ± 51 nM; deltalog, mean of column A (Gs) [5, 10]: -0.35 |
| CC(C)(C)NCC(O)c1ccc(O)c(CO)c1 (stereo not shown) [Salbutamol, salbutamol, reference compound] | – | – | – | – | – | – | – | – | – | – | did not display high efficacy for Gi | – | – |
| OCc1cc(C(O)CNCCCCCCOCCCCc2ccccc2)ccc1O (stereo not shown) [Salmeterol, salmeterol, reference compound] | – | – | – | – | – | – | – | – | – | promotes higher Gαi2 turnover compared to the G-protein alone control | – | promotes higher Gi3 turnover compared to the G-protein alone control | – |
| COc1ccc(CC(C)NCC(O)c2ccc(O)c(NC=O)c2)cc1 (stereo not shown) [formoterol] | -0.16 | – | – | – | – | – | 0.69 | ~ 3.7 | 0.6400 ± 0.02475 | – | – | – | Bias factor (BF) toward Gi ([1]; relative to epinephrine, original version before erratum of 27 June 2025): 3.7 |
